One experiment has as its system MCF-7 cells. The experiment can be described thus: MCF-7 GI50 determination (crystal violet growth inhibition). It counts as cell-based, human. The note with it: Homo sapiens, MCF7, 96 h. The method, then:
Growth inhibition (GI50) values were measured on the human breast carcinoma line, MCF-7. MCF-7 cells were plated at 2×10^4 cells/well in 96 well plates and grown for 24 hours in drug free media. On day 2, test compounds were added to the plates at 10-fold dilutions. Four days later, cells were fixed by the addition of glutaraldehyde to 0.75%. After 30 min, the fixed cells were extensively rinsed with distilled water and dried at room temperature for one hour. The cells were then stained with a 0.2% crystal violet solution for one hour at room temperature. Unbound stain was removed by ten rinses with tap water and plates were allowed to air dry for 30 min. The crystal violet was then solubilized by the addition of 10% acetic acid for 15 min and quantified by measuring absorbance at 570 nm on a Molecular Devices microplate reader. Growth inhibition was calculated according to the following equation: GI=[…], where the optical density (OD) of the test well after 4 days of treatment was T, the OD of the wells in the control plate on day 0 was T0. Plots of percent growth inhibition versus inhibitor concentration were used to determine the GI50.

Another experiment has as its system HeLa S-3 cells. The experiment is described as follows: HeLa GI50 determination (SRB growth inhibition). The experiment is classed as cell-based, human. To be noted: Homo sapiens, HeLa S3, 48 h. The method, then:
Growth inhibition (GI50) values were measured on the human cervical carcinoma cell line, HeLa S-3, which were selected for growth on plastic. The HeLa cell assay was based on the description of Skehan et al., J. Natl. Cancer Inst., 82:1107-12 (1990), which is hereby incorporated by reference in its entirety. HeLa cells were plated at 2×10^4 cells/well in 96 well plates. One day later, a control plate was fixed by the addition of TCA to 5%. After five rinses with tap water, the plate was air-dried and stored at 4° C. Test compounds were added to the remaining plates at 10-fold dilutions. Two days later, all plates were fixed as described above. Cells were then stained by the addition of 100 μL per well of 0.4% sulforhodamine B (SRB) in 1% acetic acid for 30 min at 4° C. Wells were then quickly rinsed 5× with 1% acetic acid and allowed to air dry. The SRB was then solubilized by the addition of 100 μL per well of unbuffered 10 mM Tris base. Dye was quantified by measuring absorbance at 490 nm on a Molecular Devices microplate reader. Growth inhibition was calculated according to the following equation: GI=100×(T−T0)/(C−T0), where the optical density (OD) of the test well after 2 days of treatment was T, the OD of the wells in the control plate on day 0 was T0 and C was the OD of untreated wells. Plots of percent growth inhibition versus inhibitor concentration were used to determine the GI50.

Where [1] appears, read: MCF-7 cells, 4 days of treatment, crystal violet, read-out: MCF-7 Cells GI50.
Where [2] appears, read: HeLa S-3 cells, 2 days of treatment, sulforhodamine B, read-out: HeLa Cells GI50.
Where [3] appears, read: read-out: MCF-7 Cells GI50 (nM).

SMILES strings stand for the structures. Read-outs that look alike come from different tables or passages of the source.

As usually defined, the GI50 is the concentration at which growth is held to half of that of the control.

For the compound `CC[C@]1(O)C[C@H]2CN(CCc3c([nH]c4ccc(SC)cc34)[C@@](C(=O)OC)(c3cc4c(cc3OC)N(C=O)[C@H]3[C@@](O)(C(=O)OC)[C@H](OC(C)=O)[C@]5(CC)C=CCN6CC[C@]43[C@@H]65)C2)C1` [Example 42, 12′-(methylsulfanyl) vincristine], the GI50 in the experiment with MCF-7 cells (setting [1]) and in the experiment with HeLa S-3 cells (setting [2]) was 3 nM each time.
Take `CC[C@]1(O)C[C@H]2CN(CCc3c([nH]c4ccc(SC)cc34)[C@@](C(=O)OC)(c3cc4c(cc3OC)N(C)[C@H]3[C@@](O)(C(=O)OC)[C@H](OC(C)=O)[C@]5(CC)C=CCN6CC[C@]43[C@@H]65)C2)C1` [Example 43, 12′-(methylsulfanyl) vinblastine]: the GI50 came out at 2 nM in the experiment with MCF-7 cells (setting [1]) and 0.6 nM in the experiment on HeLa S-3 cells (setting [2]).
For `CC[C@]1(O)C[C@H]2CN(CCc3c([nH]c4ccc(SCC(=O)OC(C)(C)C)cc34)[C@@](C(=O)OC)(c3cc4c(cc3OC)N(C)[C@H]3[C@@](O)(C(=O)OC)[C@H](OC(C)=O)[C@]5(CC)C=CCN6CC[C@]43[C@@H]65)C2)C1` [Example 44, 12′-(tert-butoxycarbonylmethylsulfanyl) vinblastine], the GI50 with MCF-7 cells (setting [3]) was determined as 100 nM; in the experiment on HeLa S-3 cells (read-out: HeLa Cells GI50 (nM)), 70 nM.
For `CC[C@]1(O)C[C@H]2CN(CCc3c([nH]c4ccc(SCC(=O)O)cc34)[C@@](C(=O)OC)(c3cc4c(cc3OC)N(C)[C@H]3[C@@](O)(C(=O)OC)[C@H](OC(C)=O)[C@]5(CC)C=CCN6CC[C@]43[C@@H]65)C2)C1` [Example 45, 12′-(carboxymethylsulfanyl)vinblastine] the same measures were 200 nM and 50 nM.
For `CC[C@]1(O)C[C@H]2CN(CCc3c([nH]c4ccc(SCC(=O)NC)cc34)[C@@](C(=O)OC)(c3cc4c(cc3OC)N(C)[C@H]3[C@@](O)(C(=O)OC)[C@H](OC(C)=O)[C@]5(CC)C=CCN6CC[C@]43[C@@H]65)C2)C1` [Example 46, 12′-(methylaminocarbonylmethylsulfanyl)vinblastine] the same measures were 500 nM and 200 nM.
For `CC[C@]1(O)C[C@H]2CN(CCc3c([nH]c4ccc(SCCC(=O)OC)cc34)[C@@](C(=O)OC)(c3cc4c(cc3OC)N(C=O)[C@H]3[C@@](O)(C(=O)OC)[C@H](OC(C)=O)[C@]5(CC)C=CCN6CC[C@]43[C@@H]65)C2)C1` [Example 47, 12′-(methoxycarbonylethylsulfanyl) vincristine] the same measures were 40 nM and 20 nM.
In the case of `CC[C@]1(O)C[C@H]2CN(CCc3c([nH]c4ccc(SCCN(C)C)cc34)[C@@](C(=O)OC)(c3cc4c(cc3OC)N(C)[C@H]3[C@@](O)(C(=O)OC)[C@H](OC(C)=O)[C@]5(CC)C=CCN6CC[C@]43[C@@H]65)C2)C1` [Example 48, 12′-(2-(N,N-dimethylamino)ethylsulfanyl)vinblastine], the GI50 in the experiment on MCF-7 cells (setting [3]) was found to be 40 nM; in the experiment with HeLa S-3 cells (read-out: HeLa Cells GI50 (nM)) it was 30 nM.
For `CC[C@]1(O)C[C@H]2CN(CCc3c([nH]c4ccc(SCCCN5CCOCC5)cc34)[C@@](C(=O)OC)(c3cc4c(cc3OC)N(C)[C@H]3[C@@](O)(C(=O)OC)[C@H](OC(C)=O)[C@]5(CC)C=CCN6CC[C@]43[C@@H]65)C2)C1` [Example 49, 12′-(3-(morpholin-4-yl)propylsulfanyl) vinblastine] the same measures were 30 nM and 8 nM.
With `CC[C@]1(O)C[C@H]2CN(CCc3c([nH]c4ccc(SCCCN5CCCCC5)cc34)[C@@](C(=O)OC)(c3cc4c(cc3OC)N(C)[C@H]3[C@@](O)(C(=O)OC)[C@H](OC(C)=O)[C@]5(CC)C=CCN6CC[C@]43[C@@H]65)C2)C1` [Example 50, 12′-(3-(piperidin-1-yl)propylsulfanyl) vinblastine], the GI50 with MCF-7 cells (setting [1]) stood at 40 nM; with HeLa S-3 cells (setting [2]), 20 nM.
Regarding `CC[C@]1(O)C[C@H]2CN(CCc3c([nH]c4ccc(SCCNC(C)=O)cc34)[C@@](C(=O)OC)(c3cc4c(cc3OC)N(C)[C@H]3[C@@](O)(C(=O)OC)[C@H](OC(C)=O)[C@]5(CC)C=CCN6CC[C@]43[C@@H]65)C2)C1` [Example 52, 12′-(2-(acetylamino)ethylsulfanyl) vinblastine], the concentration for 50% growth inhibition (GI50) stood at 300 nM in the experiment on MCF-7 cells (setting [3]) and 200 nM with HeLa S-3 cells (read-out: HeLa Cells GI50 (nM)).
Take `CC[C@]1(O)C[C@H]2CN(CCc3c([nH]c4ccc(S)cc34)[C@@](C(=O)OC)(c3cc4c(cc3OC)N(C)[C@H]3[C@@](O)(C(=O)OC)[C@H](OC(C)=O)[C@]5(CC)C=CCN6CC[C@]43[C@@H]65)C2)C1` [Example 53, 12′-thiovinblastine]: the 50% growth inhibitory concentration (GI50) with MCF-7 cells (setting [1]) is 30 nM; with HeLa S-3 cells (setting [2]), 20 nM.
On to `CC[C@]1(O)C[C@H]2CN(CCc3c([nH]c4ccc(Sc5cccc(O)c5)cc34)[C@@](C(=O)OC)(c3cc4c(cc3OC)N(C=O)[C@H]3[C@@](O)(C(=O)OC)[C@H](OC(C)=O)[C@]5(CC)C=CCN6CC[C@]43[C@@H]65)C2)C1` [Example 54, 12′-(3-hydroxyphenylsulfanyl)vincristine], for which the figures for the GI50 in the experiment on MCF-7 cells (setting [3]) and with HeLa S-3 cells (read-out: HeLa Cells GI50 (nM)) were 50 nM and 100 nM, respectively.
With `CC[C@]1(O)C[C@H]2CN(CCc3c([nH]c4ccc(Sc5ccccc5O)cc34)[C@@](C(=O)OC)(c3cc4c(cc3OC)N(C)[C@H]3[C@@](O)(C(=O)OC)[C@H](OC(C)=O)[C@]5(CC)C=CCN6CC[C@]43[C@@H]65)C2)C1` [Example 55, 12′-(2-hydroxyphenylsulfanyl)vinblastine], the values for the GI50 in the experiment with MCF-7 cells (setting [3]) and in the experiment on HeLa S-3 cells (read-out: HeLa Cells GI50 (nM)) were 6 nM and 19 nM, respectively.
For `CC[C@]1(O)C[C@H]2CN(CCc3c([nH]c4ccc(Sc5ccccc5Cl)cc34)[C@@](C(=O)OC)(c3cc4c(cc3OC)N(C=O)[C@H]3[C@@](O)(C(=O)OC)[C@H](OC(C)=O)[C@]5(CC)C=CCN6CC[C@]43[C@@H]65)C2)C1` [Example 56, 12′-(2-chlorophenylsulfanyl)vincristine] the same measures were 30 nM and 30 nM.
For the compound `CC[C@]1(O)C[C@H]2CN(CCc3c([nH]c4ccc(SSC)cc34)[C@@](C(=O)OC)(c3cc4c(cc3OC)N(C)[C@H]3[C@@](O)(C(=O)OC)[C@H](OC(C)=O)[C@]5(CC)C=CCN6CC[C@]43[C@@H]65)C2)C1` [Example 57, 12′-(methyldisulfanyl) vinblastine], the GI50 with MCF-7 cells (setting [1]) and in the experiment with HeLa S-3 cells (setting [2]) was 300 nM in each case.
For the compound `CC[C@]1(O)C[C@H]2CN(CCc3c([nH]c4ccc(SSC(C)C)cc34)[C@@](C(=O)OC)(c3cc4c(cc3OC)N(C)[C@H]3[C@@](O)(C(=O)OC)[C@H](OC(C)=O)[C@]5(CC)C=CCN6CC[C@]43[C@@H]65)C2)C1` [Example 58, 12′-(isopropyldisulfanyl) vinblastine], the figures for the GI50 in the experiment with MCF-7 cells (setting [3]) and in the experiment with HeLa S-3 cells (read-out: HeLa Cells GI50 (nM)) were 100 nM and 200 nM, respectively.
For `CC[C@]1(O)C[C@H]2CN(CCc3c([nH]c4ccc(SSC(C)(C)C)cc34)[C@@](C(=O)OC)(c3cc4c(cc3OC)N(C)[C@H]3[C@@](O)(C(=O)OC)[C@H](OC(C)=O)[C@]5(CC)C=CCN6CC[C@]43[C@@H]65)C2)C1` [Example 59, 12′-(tert-butyldisulfanyl) vinblastine], the GI50 in the experiment with MCF-7 cells (setting [3]) and in the experiment with HeLa S-3 cells (read-out: HeLa Cells GI50 (nM)) was 300 nM in each case.
With `CC[C@]1(O)C[C@H]2CN(CCc3c([nH]c4ccc(C=O)cc34)[C@@](C(=O)OC)(c3cc4c(cc3OC)N(C)[C@H]3[C@@](O)(C(=O)OC)[C@H](OC(C)=O)[C@]5(CC)C=CCN6CC[C@]43[C@@H]65)C2)C1` [Example 61, 12′-formylvinblastine], the GI50 with MCF-7 cells (setting [1]) and in the experiment with HeLa S-3 cells (setting [2]) was 3 nM throughout.
With `CC[C@]1(O)C[C@H]2CN(CCc3c([nH]c4ccc(C=O)cc34)[C@@](C(=O)OC)(c3cc4c(cc3OC)N(C=O)[C@H]3[C@@](O)(C(=O)OC)[C@H](OC(C)=O)[C@]5(CC)C=CCN6CC[C@]43[C@@H]65)C2)C1` [Example 62, 12′-formylvincristine], the figures for the GI50 with MCF-7 cells (setting [1]) and with HeLa S-3 cells (setting [2]) were 30 nM and 10 nM, respectively.
For `CC[C@]1(O)C[C@H]2CN(CCc3c([nH]c4ccc(CO)cc34)[C@@](C(=O)OC)(c3cc4c(cc3OC)N(C)[C@H]3[C@@](O)(C(=O)OC)[C@H](OC(C)=O)[C@]5(CC)C=CCN6CC[C@]43[C@@H]65)C2)C1` [Example 63, 12′-(hydroxymethyl) vinblastine] the same measures were 60 nM and 40 nM.

(Values after patent US7745619B2, “Vinca derivatives” (priority 2003, dated 2010).)
